Source: BindingDB's records for doi:10.1016/j.bmcl.2005.01.004 (Wyeth-Ayerst Research, 2005)

Biological target: Proto-oncogene tyrosine-protein kinase Src (Homo sapiens, UniProt P12931)
Experiment: Homogeneous Time-resolved Fluorescence (HTRF) Assay
Protocol: Kinase assays were performed using the europium/APC detection format (LANCE, Perkin Elmer). HTRF is based on the proximity of europium cryptate (donor fluorophore)-labeled antiphosphotyrosine and streptavidin labeled with APC(allophycocyanin), which have been brought together by a binding reaction.

Sequence of Proto-oncogene tyrosine-protein kinase Src (P12931 2-536 limits assumed): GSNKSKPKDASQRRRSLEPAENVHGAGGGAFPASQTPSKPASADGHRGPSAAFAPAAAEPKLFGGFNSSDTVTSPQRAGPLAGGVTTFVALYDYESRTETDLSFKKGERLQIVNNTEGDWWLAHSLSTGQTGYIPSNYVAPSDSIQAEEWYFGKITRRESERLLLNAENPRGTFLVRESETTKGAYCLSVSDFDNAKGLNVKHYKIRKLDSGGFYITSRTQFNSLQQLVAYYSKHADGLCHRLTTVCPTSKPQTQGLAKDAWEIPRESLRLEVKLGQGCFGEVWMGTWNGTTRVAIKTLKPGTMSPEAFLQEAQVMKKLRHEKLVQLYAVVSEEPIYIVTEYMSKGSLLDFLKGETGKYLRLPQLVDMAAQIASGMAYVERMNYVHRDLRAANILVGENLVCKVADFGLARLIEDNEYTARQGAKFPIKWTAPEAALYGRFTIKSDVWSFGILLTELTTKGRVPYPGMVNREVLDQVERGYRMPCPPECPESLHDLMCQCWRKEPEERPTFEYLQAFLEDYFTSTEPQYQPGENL

IC50	Structure (SMILES)
11 nM	COc1cc2c(Nc3cc(OC)c(OC)c(OC)c3)c(C#N)cnc2cc1/C=C/c1cc[n+]([O-])cc1 [4-[(E)-2-{3-cyano-6-methoxy-4-[(3,4,5-trimethoxyphenyl)amino]quinolin-7-yl}ethenyl]-1-oxidopyridin-1-ium]
1000 nM	N#Cc1cnc2cc(/C=C/c3ccncc3)ccc2c1NCc1cc(Cl)cc(Cl)c1 [4-{[(3,5-dichlorophenyl)methyl]amino}-7-[(E)-2-(pyridin-4-yl)ethenyl]quinoline-3-carbonitrile]
